We go through nine compounds from patent publication US12226412B2, “Heteroaryl-ketone fused azadecalin glucocorticoid receptor modulators” (Corcept Therapeutics, Inc., priority 2012, dated 2025).

For experiment [1], the system named is induction of TAT by dexamethasone in HepG2 cells. The experiment is described as follows: HepG2 tyrosine aminotransferase (TAT) assay. The experiment is classed as cell-based, human.
A further experiment deals with T1, human recombinant GR (Homo sapiens, UniProt P04150).
T1 construct: purchased PanVera P2812
T1 sequence (P04150 1-777): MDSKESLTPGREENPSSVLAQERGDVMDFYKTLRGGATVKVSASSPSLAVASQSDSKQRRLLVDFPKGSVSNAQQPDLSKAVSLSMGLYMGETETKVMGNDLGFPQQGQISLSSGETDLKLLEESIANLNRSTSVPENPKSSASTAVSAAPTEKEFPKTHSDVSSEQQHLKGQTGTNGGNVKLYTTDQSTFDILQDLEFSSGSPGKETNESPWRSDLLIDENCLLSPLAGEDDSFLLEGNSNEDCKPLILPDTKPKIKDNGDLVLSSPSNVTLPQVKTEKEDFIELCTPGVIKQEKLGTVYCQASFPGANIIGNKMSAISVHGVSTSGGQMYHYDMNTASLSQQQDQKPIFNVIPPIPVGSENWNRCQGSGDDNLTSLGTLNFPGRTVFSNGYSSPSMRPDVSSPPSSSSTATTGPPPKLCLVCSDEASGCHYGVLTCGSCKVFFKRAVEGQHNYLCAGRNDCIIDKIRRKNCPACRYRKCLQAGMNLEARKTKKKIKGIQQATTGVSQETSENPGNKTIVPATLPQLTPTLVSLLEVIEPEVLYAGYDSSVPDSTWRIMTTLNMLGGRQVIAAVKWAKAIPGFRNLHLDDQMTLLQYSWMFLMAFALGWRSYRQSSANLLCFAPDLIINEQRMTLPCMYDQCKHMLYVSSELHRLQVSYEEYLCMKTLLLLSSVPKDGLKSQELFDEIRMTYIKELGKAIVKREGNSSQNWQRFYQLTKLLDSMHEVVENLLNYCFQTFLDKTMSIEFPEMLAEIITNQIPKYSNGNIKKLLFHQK
Put plainly: Human glucocorticoid receptor (GR) fluorescence polarisation (FP) binding assay. In short, it runs like this: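 Competition fluorescence polarisation: 0.5 nM GS Red labelled glucocorticoid and 1 nM recombinant human GR with 8-point half-log compound series, 1% DMSO, 4 h room temperature, potassium phosphate pH 7.4 buffer with molybdate, EDTA, DTT. Affinity derived from the drop in polarisation, normalised to blank wells.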

The mark [2] stands for this setting: HepG2 cells, challenge of 100 nM dexamethasone, Ki from IC50 by Cheng and Prusoff equation.
[3] abbreviates: human recombinant GR, fluorescence polarisation binding assay, read-out: GR binding.

Each structure is given as a SMILES string. Like-named read-outs stand apart in the source and are kept apart here.

As to `Cc1cc(C)cc(S(=O)(=O)N2CCC3=Cc4c(cnn4-c4ccc(F)cc4)C[C@]3(C(=O)c3ccccn3)C2)c1` [Example 11N, (R)-(6-((3,5-dimethylphenyl)sulfonyl)-1-(4-fluorophenyl)-4,4a,5,6,7,8-hexahydro-1H-pyrazolo[3,4-g]isoquinolin-4a-yl)(pyridin-2-yl)methanone], the Ki in experiment [1] (setting [2]) is less than 20 nM; on human recombinant GR (setting [3]), less than 0.5 nM.
As to `Cc1cccc(S(=O)(=O)N2CCC3=Cc4c(cnn4-c4ccc(F)cc4)C[C@]3(C(=O)c3ccccn3)C2)n1` [Example 11O, (R)-(1-(4-fluorophenyl)-6-((6-methylpyridin-2-yl)sulfonyl)-4,4a,5,6,7,8-hexahydro-1H-pyrazolo[3,4-g]isoquinolin-4a-yl)(pyridin-2-yl)methanone], the Ki in experiment [1] (setting [2]) was less than 20 nM; at human recombinant GR (setting [3]), less than 0.5 nM.
Consider `O=C(c1ccccn1)[C@]12Cc3cnn(-c4ccc(F)cc4)c3C=C1CCN(S(=O)(=O)c1ccc(F)c(F)c1)C2` [Example 11P, (R)-(6-((3,4-difluorophenyl)sulfonyl)-1-(4-fluorophenyl)-4,4a,5,6,7,8-hexahydro-1H-pyrazolo[3,4-g]isoquinolin-4a-yl)(pyridin-2-yl)methanone], for which the Ki was less than 20 nM in experiment [1] and less than 0.5 nM at human recombinant GR.
`O=C(c1ccccn1)[C@]12Cc3cnn(-c4ccc(F)cc4)c3C=C1CCN(S(=O)(=O)c1cc(F)c(F)c(F)c1)C2` [Example 11Q, (R)-(1-(4-fluorophenyl)-6-((3,4,5-trifluorophenyl)sulfonyl)-4,4a,5,6,7,8-hexahydro-1H-pyrazolo[3,4-g]isoquinolin-4a-yl)(pyridin-2-yl)methanone]: the Ki in experiment [1] (setting [2]) was less than 20 nM; on human recombinant GR (setting [3]), less than 0.5 nM.
The matching figures for `O=C(c1ccccn1)[C@]12Cc3cnn(-c4ccc(F)cc4)c3C=C1CCN(S(=O)(=O)c1ccc(F)c(Cl)c1)C2` [Example 11R, (R)-(6-((3-chloro-4-fluorophenyl)sulfonyl)-1-(4-fluorophenyl)-4,4a,5,6,7,8-hexahydro-1H-pyrazolo[3,4-g]isoquinolin-4a-yl)(pyridin-2-yl)methanone]: less than 20 nM and less than 0.5 nM.
The matching figures for `Cc1ccnc(C(=O)[C@]23Cc4cnn(-c5ccc(F)cc5)c4C=C2CCN(S(=O)(=O)c2cccc(C#N)c2)C3)c1` [Example 11S, (R)-3-((1-(4-fluorophenyl)-4a-(4-methylpicolinoyl)-4a,5,7,8-tetrahydro-1H-pyrazolo[3,4-g]isoquinolin-6 (4H)-yl)sulfonyl)benzonitrile]: less than 20 nM and less than 0.5 nM.
The matching figures for `Cc1ccnc(C(=O)[C@]23Cc4cnn(-c5ccc(F)cc5)c4C=C2CCN(S(=O)(=O)c2cnn(C)c2)C3)c1` [Example 11T, (R)-(1-(4-fluorophenyl)-6-((1-methyl-1H-pyrazol-4-yl)sulfonyl)-4,4a,5,6,7,8-hexahydro-1H-pyrazolo[3,4-g]isoquinolin-4a-yl)(4-methylpyridin-2-yl)methanone]: less than 20 nM and less than 0.5 nM.
Regarding `Cc1ccnc(C(=O)[C@]23Cc4cnn(-c5ccc(F)cc5)c4C=C2CCN(S(=O)(=O)c2ccc(F)c(F)c2)C3)c1` [Example 11U, (R)-(6-((3,4-difluorophenyl)sulfonyl)-1-(4-fluorophenyl)-4,4a,5,6,7,8-hexahydro-1H-pyrazolo[3,4-g]isoquinolin-4a-yl)(4-methylpyridin-2-yl)methanone], the Ki is less than 20 nM in experiment [1] (setting [2]) and less than 0.5 nM at human recombinant GR (setting [3]).
The matching figures for `Cc1ccnc(C(=O)[C@]23Cc4cnn(-c5ccc(F)cc5)c4C=C2CCN(S(=O)(=O)c2cn(C)cn2)C3)c1` [Example 11V, (R)-(1-(4-fluorophenyl)-6-((1-methyl-1H-imidazol-4-yl)sulfonyl)-4,4a,5,6,7,8-hexahydro-1H-pyrazolo[3,4-g]isoquinolin-4a-yl)(4-methylpyridin-2-yl)methanone]: 20 to 100 nM and less than 0.5 nM.
